Results from PubChem BioAssay (NCI).
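Each compound was tested at five concentrations against cells in 96-well plates for 48 hours. TGI denotes the concentration required for complete inhibition of growth.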

How the values were obtained:
Assay in all cases: inhibition of tumour cell growth, NCI panel, 48 h
MDA-MB-231 breast = system: MDA-MB-231 breast
OVCAR-3 ovarian = system: OVCAR-3 ovarian
CCRF-CEM leukemia = system: CCRF-CEM leukemia
OVCAR-4 ovarian = system: OVCAR-4 ovarian
HOP-92 NSCLC = system: HOP-92 NSCLC
TK-10 renal = system: TK-10 renal
SW-620 colon = system: SW-620 colon
BT-549 breast = system: BT-549 breast
NCI-H23 lung = system: NCI-H23 lung
NCI-H226 lung = system: NCI-H226 lung
NCI-H522 lung = system: NCI-H522 lung
HCT-15 colon = system: HCT-15 colon
T-47D breast = system: T-47D breast
PC-3 prostate = system: PC-3 prostate
SF-539 CNS = system: SF-539 CNS
CAKI-1 renal = system: CAKI-1 renal
SF-268 CNS = system: SF-268 CNS
U251 CNS = system: U251 CNS
MCF7 breast = system: MCF7 breast
SK-OV-3 ovarian = system: SK-OV-3 ovarian
COLO 205 colon = system: COLO 205 colon
786-0 renal = system: 786-0 renal
MDA-MB-435 = system: MDA-MB-435
HS 578T breast = system: HS 578T breast
ACHN renal = system: ACHN renal
SR leukemia = system: SR leukemia
MALME-3M melanoma = system: MALME-3M melanoma
NCI-H460 lung = system: NCI-H460 lung
A549 NSCLC = system: A549 NSCLC
HCC-2998 colon = system: HCC-2998 colon
UO-31 renal = system: UO-31 renal
HCT-116 colon = system: HCT-116 colon
OVCAR-8 ovarian = system: OVCAR-8 ovarian
RXF 393 renal = system: RXF 393 renal
LOX IMVI melanoma = system: LOX IMVI melanoma
HT29 colon = system: HT29 colon
KM12 colon = system: KM12 colon
K-562 leukemia = system: K-562 leukemia
SF-295 CNS = system: SF-295 CNS
IGROV1 ovarian = system: IGROV1 ovarian
NCI/ADR-RES ovarian = system: NCI/ADR-RES ovarian
EKVX NSCLC = system: EKVX NSCLC
HOP-62 NSCLC = system: HOP-62 NSCLC
A498 renal = system: A498 renal
SNB-19 CNS = system: SNB-19 CNS
SK-MEL-2 melanoma = system: SK-MEL-2 melanoma
OVCAR-5 ovarian = system: OVCAR-5 ovarian
M14 melanoma = system: M14 melanoma
HL-60(TB) leukemia = system: HL-60(TB) leukemia
UACC-257 melanoma = system: UACC-257 melanoma
SK-MEL-28 melanoma = system: SK-MEL-28 melanoma
DU-145 prostate = system: DU-145 prostate
SN12C renal = system: SN12C renal
RPMI-8226 leukemia = system: RPMI-8226 leukemia
UACC-62 melanoma = system: UACC-62 melanoma
MDA-N = system: MDA-N
MOLT-4 leukemia = system: MOLT-4 leukemia
SK-MEL-5 melanoma = system: SK-MEL-5 melanoma
SNB-75 CNS = system: SNB-75 CNS

COc1ccc(Nc2nc(N)c(C(=O)c3ccco3)s2)cc1
TGI (MDA-MB-231 breast): > 100 µM
TGI (OVCAR-3 ovarian): > 70.6 µM
TGI (CCRF-CEM leukemia): > 56.1 µM
TGI (OVCAR-4 ovarian): > 89.9 µM
TGI (HOP-92 NSCLC): > 100 µM
TGI (TK-10 renal): > 57.5 µM
TGI (SW-620 colon): > 100 µM
TGI (BT-549 breast): > 100 µM
TGI (NCI-H23 lung): > 100 µM
TGI (NCI-H226 lung): > 72.2 µM
TGI (NCI-H522 lung): > 100 µM
TGI (HCT-15 colon): > 100 µM
TGI (T-47D breast): > 100 µM
TGI (PC-3 prostate): > 100 µM
TGI (SF-539 CNS): 63.2 µM
TGI (CAKI-1 renal): > 100 µM
TGI (SF-268 CNS): > 100 µM
TGI (U251 CNS): > 100 µM
TGI (MCF7 breast): > 100 µM
TGI (SK-OV-3 ovarian): > 100 µM
TGI (COLO 205 colon): > 100 µM
TGI (786-0 renal): > 80.1 µM
TGI (MDA-MB-435): 16.9 µM
TGI (HS 578T breast): > 100 µM
TGI (ACHN renal): > 100 µM
TGI (SR leukemia): > 33.8 µM
TGI (MALME-3M melanoma): > 100 µM
TGI (NCI-H460 lung): > 53.3 µM
TGI (A549 NSCLC): > 100 µM
TGI (HCC-2998 colon): 71.9 µM
TGI (UO-31 renal): > 70.2 µM
TGI (HCT-116 colon): > 66.4 µM
TGI (OVCAR-8 ovarian): > 100 µM
TGI (RXF 393 renal): > 77.6 µM
TGI (LOX IMVI melanoma): > 100 µM
TGI (HT29 colon): > 100 µM
TGI (KM12 colon): > 100 µM
TGI (K-562 leukemia): > 100 µM
TGI (SF-295 CNS): > 100 µM
TGI (IGROV1 ovarian): > 100 µM
TGI (NCI/ADR-RES ovarian): > 94.8 µM
TGI (EKVX NSCLC): > 100 µM
TGI (HOP-62 NSCLC): > 100 µM
TGI (A498 renal): > 61.1 µM
TGI (SNB-19 CNS): > 100 µM
TGI (SK-MEL-2 melanoma): > 83.9 µM
TGI (OVCAR-5 ovarian): > 100 µM
TGI (M14 melanoma): > 100 µM
TGI (HL-60(TB) leukemia): 17.7 µM
TGI (UACC-257 melanoma): > 100 µM
TGI (SK-MEL-28 melanoma): > 100 µM
TGI (DU-145 prostate): > 100 µM
TGI (SN12C renal): > 100 µM
TGI (RPMI-8226 leukemia): > 85.4 µM
TGI (UACC-62 melanoma): > 100 µM
TGI (MDA-N): > 100 µM
TGI (MOLT-4 leukemia): > 55.7 µM
TGI (SK-MEL-5 melanoma): 99.7 µM

Cc1cc(=O)[nH]c2c1C(=O)c1c(C)cc(=O)n(C)c1C2=O
TGI (MDA-MB-231 breast): 0.789 µM
TGI (OVCAR-3 ovarian): 0.151 µM
TGI (CCRF-CEM leukemia): > 10 µM
TGI (OVCAR-4 ovarian): 0.378 µM
TGI (TK-10 renal): 0.418 µM
TGI (SW-620 colon): 0.179 µM
TGI (BT-549 breast): 0.0519 µM
TGI (NCI-H23 lung): 0.03 µM
TGI (NCI-H226 lung): 0.0777 µM
TGI (NCI-H522 lung): 0.187 µM
TGI (HCT-15 colon): 0.264 µM
TGI (T-47D breast): 0.848 µM
TGI (PC-3 prostate): 0.391 µM
TGI (SF-539 CNS): 0.0369 µM
TGI (CAKI-1 renal): 0.258 µM
TGI (SF-268 CNS): 0.465 µM
TGI (U251 CNS): 0.242 µM
TGI (MCF7 breast): 0.0356 µM
TGI (SK-OV-3 ovarian): 0.432 µM
TGI (COLO 205 colon): 0.037 µM
TGI (786-0 renal): 0.182 µM
TGI (MDA-MB-435): 0.0275 µM
TGI (HS 578T breast): 0.154 µM
TGI (ACHN renal): 0.223 µM
TGI (SR leukemia): > 10 µM
TGI (MALME-3M melanoma): 0.00494 µM
TGI (NCI-H460 lung): 0.364 µM
TGI (A549 NSCLC): 0.399 µM
TGI (HCC-2998 colon): 0.058 µM
TGI (UO-31 renal): 0.318 µM
TGI (HCT-116 colon): 0.253 µM
TGI (OVCAR-8 ovarian): 0.207 µM
TGI (RXF 393 renal): 0.281 µM
TGI (LOX IMVI melanoma): 0.26 µM
TGI (HT29 colon): 0.208 µM
TGI (KM12 colon): 0.192 µM
TGI (K-562 leukemia): > 10 µM
TGI (SF-295 CNS): 0.31 µM
TGI (IGROV1 ovarian): 0.437 µM
TGI (NCI/ADR-RES ovarian): 0.259 µM
TGI (EKVX NSCLC): 0.366 µM
TGI (HOP-62 NSCLC): 0.0999 µM
TGI (A498 renal): 0.36 µM
TGI (SNB-19 CNS): 0.0358 µM
TGI (SK-MEL-2 melanoma): 0.0592 µM
TGI (OVCAR-5 ovarian): 0.31 µM
TGI (M14 melanoma): 0.0282 µM
TGI (HL-60(TB) leukemia): 0.374 µM
TGI (UACC-257 melanoma): 0.0307 µM
TGI (SK-MEL-28 melanoma): 0.0351 µM
TGI (DU-145 prostate): 0.0479 µM
TGI (SN12C renal): 0.195 µM
TGI (RPMI-8226 leukemia): > 9.41 µM
TGI (UACC-62 melanoma): 0.0332 µM
TGI (MDA-N): 0.0331 µM
TGI (MOLT-4 leukemia): > 3.56 µM
TGI (SK-MEL-5 melanoma): 0.0284 µM
TGI (SNB-75 CNS): 0.0325 µM
